{"source": "PubChem BioAssay (NCI)", "note": "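Grown in 96-well plates, cells were treated for 48 hours with each compound at five concentrations. Insufficient inhibition: endpoint recorded as highest concentration tested. Here, GI50 denotes the concentration required for 50% inhibition of growth. TGI denotes the concentration required for complete inhibition of growth.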", "data": [{"test_system": "TK-10 renal", "assay": "NCI tumour cell line growth inhibition, 48 h", "units": {"TGI": "µM", "GI50": "µM"}, "values": [{"smiles": "O=C1CCC(=O)N1Sc1ccccc1", "TGI": "> 100"}, {"smiles": "CCOC(=O)c1c(NC(=O)c2ccc(Cl)cc2)sc2c(CN(C)C)c(O)ccc12", "GI50": 14.5, "TGI": 34.5}, {"smiles": "O=C(/C=C/c1ccccc1O)c1ccccc1Cl", "TGI": "> 100"}, {"smiles": "CCCCC1(C(NC(=O)c2ccccc2Cl)c2ccncc2)C(=O)N(c2ccccc2)N(c2ccccc2)C1=O", "note": "(stereo not drawn)", "TGI": "> 100"}, {"smiles": "COc1ccc(/C=N/NS(=O)(=O)c2ccccc2)cc1", "TGI": "> 100"}, {"smiles": "COc1ccccc1NC(=O)C1=C(C)NC(C)=C(C(=O)Nc2ccccc2OC)C1c1ccco1", "TGI": "> 79.7"}, {"smiles": "C1=CC2CCC1CN2CCC1CNc2ccccc21", "note": "(stereo not drawn)", "TGI": "> 100"}, {"smiles": "Cc1ccc(OC(=O)N2C/C(=C\\c3ccccc3)C(=O)/C(=C/c3ccccc3)C2)cc1", "TGI": "> 87.9"}, {"smiles": "O=C(O)CCCCC1CCSS1", "note": "(stereo not drawn)", "TGI": "> 100"}, {"smiles": "O=C1C(=O)C2(CC1S(=O)(=O)c1ccccc1)c1ccccc1-c1ccccc12", "note": "(stereo not drawn)", "TGI": 68.9}, {"smiles": "O=c1oc2c3ccc4ccccc4c3n(CCN3CCCCC3)c2c2ccccc12", "TGI": "> 100"}, {"smiles": "O=c1cccc(Cl)[nH]1", "TGI": "> 100"}, {"smiles": "Cc1ccc(S(=O)C(C)C(Cl)c2ccccc2)cc1", "note": "(stereo not drawn)", "TGI": "> 100"}, {"smiles": "CN1CCc2ccccc2C(C(=O)c2ccc3c(c2)OCO3)C1=O", "note": "(stereo not drawn)", "TGI": "> 100"}, {"smiles": "Cc1cc(Cl)ccc1NC(=O)C1C(=O)N(c2ccc(Cl)cc2C)C(=O)/C1=N\\NC(N)=S", "note": "(stereo not drawn)", "TGI": "> 100"}, {"smiles": "COc1cc(-c2nn(-c3cccc(NC(=O)CCNc4ccc(N5CCOCC5)cc4)c3)cc2-c2ccncc2)ccc1Cl", "GI50": 3.13, "TGI": 47.9}, {"smiles": "COc1ccc(Br)c(C(=O)N2CCc3ccccc32)c1N", "TGI": "> 100"}, {"smiles": "COc1ccc(C)cc1NC(=S)C#N", "TGI": "> 100"}, {"smiles": "Cc1ccc2ccc(-c3ccccc3)c3c2c1C(=O)c1ccccc1C3=O", "TGI": "> 100"}, {"smiles": "OCC(O)C(O)C(O)c1nn(-c2ccc(F)cc2)c2nc3cc(Cl)c(Cl)cc3nc12", "note": "(stereo not drawn)", "TGI": 59.1}, {"smiles": "COc1ccc(C2Cc3cc(OC)c(OC)c(OC)c3C2)cc1", "note": "(stereo not drawn)", "TGI": "> 100"}]}, {"test_system": "RPMI-8226 leukemia", "assay": "NCI tumour cell line growth inhibition, 48 h", "units": {"GI50": "nM", "TGI": "µM"}, "values": [{"smiles": "CS(=O)(=O)Nc1cc(-c2ccc3ncnc(Nc4cccc(Cl)c4)c3c2)cnc1Cl", "GI50": 378, "TGI": 2.36}, {"smiles": "CC1(C)OC(=O)C(=C2CCC(C(=O)Nc3cccc(C(F)(F)F)c3)N2)C(=O)O1", "note": "(stereo not drawn)", "TGI": "> 100"}, {"smiles": "CN(C)CCN1CCc2c([nH]c3ccccc23)C1c1cccnc1", "note": "(stereo not drawn)", "TGI": "> 100"}, {"smiles": "CN(C)c1ccc(C(O)C2=CC(=O)c3ccccc3C2=O)cc1", "note": "(stereo not drawn)", "GI50": 3690, "TGI": 66.8}, {"smiles": "CCN(c1ccccc1)[C@H]1C(=O)N(c2ccc([N+](=O)[O-])cc2)[C@H]1c1ccc(OC)cc1", "TGI": "> 100"}, {"smiles": "COc1ccc(/C=C\\c2cc(OC)c(OC)c(OC)c2)cc1", "TGI": "> 100"}, {"smiles": "COc1cc2cc(Oc3cccc(NC(=O)Nc4cc(C(F)(F)F)cc(C(F)(F)F)c4)c3)c(C)nc2cc1OC", "GI50": 406, "TGI": 5.51}, {"smiles": "CCOC(=O)[C@@H]1CSC(CC)=C(C(=O)O)N1", "GI50": "> 100000", "TGI": "> 100"}, {"smiles": "C[C@H]1CC[P+](C)(c2ccccc2)C1", "note": "(stereo partly drawn)", "TGI": "> 100"}, {"smiles": "COc1cc(OC)c2c(=O)c3cccc([N+](=O)[O-])c3n(C)c2c1", "TGI": "> 100"}, {"smiles": "COc1cccc(/C=N\\NC(=O)C(C)SC(C)C(=O)N/N=C/c2cccc(OC)c2)c1", "note": "(stereo not drawn)", "TGI": "> 82.3"}, {"smiles": "COc1ccc(-c2csc(Nc3cccc(-c4csc(C)n4)c3)n2)cc1", "GI50": 2520, "TGI": "> 50"}, {"smiles": "COc1cc2c3c(n(CCCNCCCNCCCN)c(=O)c2cc1OC)-c1cc2c(cc1C3=O)OCO2", "GI50": "> 100000", "TGI": "> 100"}, {"smiles": "COc1ccc(-c2c(N)noc2-c2cc(OC)c3c(c2)OCCO3)cc1", "GI50": 33.3, "TGI": 17.9}, {"smiles": "O=C1CCC(=O)N1Sc1ccccc1", "TGI": "> 100"}, {"smiles": "CCCCC1(C(NC(=O)c2ccccc2Cl)c2ccncc2)C(=O)N(c2ccccc2)N(c2ccccc2)C1=O", "note": "(stereo not drawn)", "TGI": 84.1}, {"smiles": "COc1ccc(/C=N/NS(=O)(=O)c2ccccc2)cc1", "TGI": "> 100"}, {"smiles": "COc1ccccc1NC(=O)C1=C(C)NC(C)=C(C(=O)Nc2ccccc2OC)C1c1ccco1", "TGI": 76.1}, {"smiles": "C1=CC2CCC1CN2CCC1CNc2ccccc21", "note": "(stereo not drawn)", "TGI": "> 100"}, {"smiles": "Cc1ccc(OC(=O)N2C/C(=C\\c3ccccc3)C(=O)/C(=C/c3ccccc3)C2)cc1", "TGI": 1.9}, {"smiles": "O=C(O)CCCCC1CCSS1", "note": "(stereo not drawn)", "TGI": "> 100"}, {"smiles": "O=C1C(=O)C2(CC1S(=O)(=O)c1ccccc1)c1ccccc1-c1ccccc12", "note": "(stereo not drawn)", "TGI": 58.9}, {"smiles": "O=c1oc2c3ccc4ccccc4c3n(CCN3CCCCC3)c2c2ccccc12", "TGI": "> 100"}]}]}
